Patent US5198358A, “Microorganism for producing C-31 desmethyl FR-900520 cyclic hemiketal immunosuppressant agent” (Merck & Co., Inc., priority 1991, dated 1993)
Several values for one entry are separate records, joined by “and”; a condition that tells them apart may be missing. Equal values may be shown once. Entries after “also recorded” stand apart in the source; their conditions may differ. Read-outs that look alike come from different tables or passages of the source.

Legend:
[1] = test system: Splenic T-cells stimulated with ionomycin + PMA; test: T-cell proliferation assay (ionomycin plus PMA induced T-cell stimulation); assay type: cell-based, mouse; settings: for Inhibition of T-cell activation (result in words): T-cell proliferation assay
Procedure: Cells were pelleted by centrifugation at 1500 rpm for 8 minutes. Contaminating red cells were removed by treating the pellet with ammonium chloride lysing buffer (GIBCO) for 2 minutes at 4° C. Cold medium was added and cells were again centrifuged at 1500 rpm for 8 minutes. T lymphocytes were then isolated by separation of the cell suspension on nylon wool columns as follows: Nylon wool columns were prepared by packing approximately 4 grams of washed and dried nylon wool into 20 ml plastic syringes. The columns were sterilized by autoclaving at 250° F. for 30 minutes. Nylon wool columns were wetted with warm (37° C.) culture medium and rinsed with the same medium. Washed spleen cells resuspended in warm medium were slowly applied to the nylon wool. The columns were then incubated in an upright position at 37° C. for 1 hour. Non-adherent T lymphocytes were eluted from the columns with warm culture medium and the cell suspensions were spun as above.
The cell suspension was immediately distributed into 96 well flat-bottom microculture plates (Costar) at 200 μl/well. […] The proliferation of T lymphocytes was assessed by measurement of tritiated thymidine incorporation. After 44 hours of culturing, the cells were pulse-labelled with 2 μCi/well of tritiated thymidine (NEN, Cambridge, Mass.). After another 4 hours of incubation, cultures were harvested on glass fiber filters using a multiple sample harvester. Radioactivity of filter discs corresponding to individual wells was measured by standard liquid scintillation counting methods (Betacounter). Mean counts per minute of replicate wells were calculated and the results expressed as percent inhibition of tritiated thymidine uptake (proliferation) as follows: [formula]

[2] = target: T1, 31-O-desmethylimmunomycin O-methyltransferase (DIMT) (Streptomyces hygroscopicus, UniProt Q9KID5); test: S-adenosyl-L-methionine: 31-O-desmethylimmunomycin O-methyltransferase (DIMT) assay
T1 sequence (Q9KID5 1-260): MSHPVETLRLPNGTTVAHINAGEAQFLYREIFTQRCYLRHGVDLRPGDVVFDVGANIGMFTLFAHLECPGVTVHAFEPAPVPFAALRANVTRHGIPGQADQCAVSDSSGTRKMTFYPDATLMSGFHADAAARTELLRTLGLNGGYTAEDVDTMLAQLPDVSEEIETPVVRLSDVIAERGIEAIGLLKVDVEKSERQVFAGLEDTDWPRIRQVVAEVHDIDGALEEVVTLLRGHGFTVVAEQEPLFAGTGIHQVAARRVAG
Procedure: The assay was carried out in 1 ml. mixture containing 0.025 mM 31-desmethylimmunomycin, 1 mM MgSO4 and different quantities of the enzyme source in 50 mM phosphate buffer, pH 7.5. Reaction was initiated by the addition of 1 nmole of ^14 C-SAM (S-adenosyl-L-[methyl-^14 C] methionine with the specific activity of 46 mCi/mmole. Incubation of the complete mixture was carried out at 34° C. for 20 minutes and the reaction was terminated by the addition of ethyl acetate. Product of the reaction was extracted with 2 ml of ethyl acetate and 1 ml of the extract was used for TLC and HPLC analysis. For the analysis of the radioactive reaction product (immunomycin), the ethyl acetate extract was spiked with the standard immunomycin and subjected to the TLC with a plate having plastic support. The plastic sheet was developed in chloroform:methanol (9:1) and area showing standard immunomycin under UV-light was cut and the radioactivity in the cut-strip was measured. The amount of the product formed was calculated from the measured radioactivity. For the HPLC analysis of the product of the enzyme reaction, several enzymatic reaction mixtures were pooled and the extract was subjected to the TLC analysis as above. The area on the silica gel plate showing the band having an Rf value identical with the standard immunomycin was scraped and eluted with ethyl acetate. The ethyl acetate extract was washed with water, dried under nitrogen and the residue was subjected to the HPLC analysis on Partisil 5-ODS-3 column with acetonitrile:water:phosphoric acid (65:35:0.1) as the eluting solvent. One milliliter fractions were collected and a portion of each fraction was examined for the radioactivity.
Examination of the optimal temperature, pH and metal requirement of the DIMT activity was carried out on the enzyme preparation obtained from DEAE-Sepharose column. For kinetic analysis, a preparation which had been purified through a second MonoQ column chromatography was utilized.

[3] = reputed; EPO Publication No. 0184162; cited from earlier work
[4] = substrate: C[S+](CC[C@H](N)C(=O)[O-])C[C@H]1O[C@@H](n2cnc3c(N)ncnc32)[C@H](O)[C@@H]1O; test: purified protein, by the assay type; settings: other: SAM as variable substrate, 25 umM 31-O-desmethylimmunomycin as cosubstrate; pH 7.5
Procedure: The assay was carried out in 1 ml. mixture containing 0.025 mM 31-desmethylimmunomycin, 1 mM MgSO4 and different quantities of the enzyme source in 50 mM phosphate buffer, pH 7.5. Reaction was initiated by the addition of 1 nmole of ^14 C-SAM (S-adenosyl-L-[methyl-^14 C] methionine with the specific activity of 46 mCi/mmole. Incubation of the complete mixture was carried out at 34° C. for 20 minutes and the reaction was terminated by the addition of ethyl acetate. Product of the reaction was extracted with 2 ml of ethyl acetate and 1 ml of the extract was used for TLC and HPLC analysis. For the analysis of the radioactive reaction product (immunomycin), the ethyl acetate extract was spiked with the standard immunomycin and subjected to the TLC with a plate having plastic support. The plastic sheet was developed in chloroform:methanol (9:1) and area showing standard immunomycin under UV-light was cut and the radioactivity in the cut-strip was measured. The amount of the product formed was calculated from the measured radioactivity. For the HPLC analysis of the product of the enzyme reaction, several enzymatic reaction mixtures were pooled and the extract was subjected to the TLC analysis as above. […] One milliliter fractions were collected and a portion of each fraction was examined for the radioactivity. […]

[5] = substrate: [H][C@@]1(/C=C(\C)[C@@]2([H])OC(=O)[C@]3([H])CCCCN3C(=O)C(=O)[C@]3(O)O[C@]([H])([C@@H](OC)C[C@@H](C)C/C(C)=C/[C@@H](CC)C(=O)C[C@H](O)[C@H]2C)[C@@H](OC)C[C@H]3C)CC[C@@H](O)[C@H](O)C1; test: purified protein, by the assay type; settings: other: 31-O-desmethylimmunomycin as variable substrate, 40 uM SAM; Lineweaver-Burk; pH 7.5
[6] = Mus musculus, T-cell, HPLC purified samples, evaluated in the same set of experiments, read-out: IC50 (biological activity)

Molecule: CC[C@@H]1C=C2COC1(O)C[C@H](O)[C@@H](C)[C@@H](/C(C)=C/[C@@H]1CC[C@@H](O)[C@H](O)C1)OC(=O)[C@@H]1CCCCN1C(=O)C(=O)[C@]1(O)O[C@H]([C@@H](OC)C[C@@H](C)C2)[C@@H](OC)C[C@H]1C [Compound I]
- inhibition at 0.0025 µM ([1]; Mus musculus, T-cell, 2.5 nM, tritiated thymidine uptake, harvest at 48 hours, read-out: Percent of Inhibition): 0%
- inhibition at 0.0049 µM ([1]; Mus musculus, T-cell, 4.9 nM, tritiated thymidine uptake, harvest at 48 hours, read-out: Percent of Inhibition): 0%
- inhibition at 0.0099 µM ([1]; Mus musculus, T-cell, 9.9 nM, tritiated thymidine uptake, harvest at 48 hours, read-out: Percent of Inhibition): 39%
- inhibition at 0.0197 µM ([1]; Mus musculus, T-cell, 19.7 nM, tritiated thymidine uptake, harvest at 48 hours, read-out: Percent of Inhibition): 65%
- inhibition at 0.0394 µM ([1]; Mus musculus, T-cell, 39.4 nM, tritiated thymidine uptake, harvest at 48 hours, read-out: Percent of Inhibition): 89%
- inhibition at 0.0788 µM ([1]; Mus musculus, T-cell, 78.8 nM, tritiated thymidine uptake, harvest at 48 hours, read-out: Percent of Inhibition): 95%
- inhibition at 0.1576 µM ([1]; Mus musculus, T-cell, 157.6 nM, tritiated thymidine uptake, harvest at 48 hours, read-out: Percent of Inhibition): 98%
- inhibition at 0.3152 µM ([1]; Mus musculus, T-cell, 315.2 nM, tritiated thymidine uptake, harvest at 48 hours, read-out: Percent of Inhibition): 98%
- IC50 [1, 6]: ~11 nM
- IC50 ([1]; Mus musculus, T-cell proliferation, Example 4, read-out: IC50): 0.0115 µg/mL and 14.5 nM
- Inhibition of T-cell activation (result in words) [1]: positive inhibition of T-cell activation; also recorded: antagonist activity versus the FK-506 immunosuppressive activity
- Effect of IL2 on inhibition of T-cell proliferation ([1]; addition of 50 units/ml of recombinant IL2 at the initiation of culture): reversed

Molecule: CC[C@@H]1C=C2COC1(O)C[C@H](O)[C@@H](C)[C@@H](/C(C)=C/[C@@H]1CC[C@@H](O)[C@H](OC)C1)OC(=O)[C@@H]1CCCCN1C(=O)C(=O)[C@]1(O)O[C@H]([C@@H](OC)C[C@@H](C)C2)[C@@H](OC)C[C@H]1C [Compound II]
- IC50 [1, 6]: ~6 nM
- Inhibition of T-cell activation (result in words) [1]: positive inhibition of T-cell activation; also recorded: positive results

Molecule: CC[C@@H]1/C=C(\C)C[C@H](C)C[C@H](OC)[C@H]2O[C@@](O)(C(=O)C(=O)N3CCCC[C@H]3C(=O)O[C@H](/C(C)=C/[C@@H]3CC[C@@H](O)[C@H](O)C3)[C@H](C)[C@@H](O)CC1=O)[C@H](C)C[C@@H]2OC [31-O-desmethylimmunomycin]
- apparent Vmax ([2]; 31-O-desmethylimmunomycin as variable substrate, 40 uM SAM, Lineweaver-Burk): 45.5 nmol/h/mg

Molecule: C=CC[C@@H]1/C=C(\C)C[C@H](C)C[C@H](OC)[C@H]2O[C@@](O)(C(=O)C(=O)N3CCCC[C@H]3C(=O)O[C@H](/C(C)=C/[C@@H]3CC[C@@H](O)[C@H](OC)C3)[C@H](C)[C@@H](O)CC1=O)[C@H](C)C[C@@H]2OC [FR900506, reference compound]
- inhibition at 0.01 µg/mL ([1]; Mus musculus, T-cell, 10 ng/ml, standard): 99%
- Effectiveness relative to cyclosporin [3]: 100 times

Molecule: N.N.O=S(=O)(O)O [ammonium sulfate]
- Inhibition of DIMT activity ([2]; crude extract): inhibited

Molecule: CC[C@@H]1/C=C(\C)C[C@H](C)C[C@H](OC)[C@H]2O[C@@](O)(C(=O)C(=O)N3CCCC[C@H]3C(=O)O[C@H](/C(C)=C/[C@@H]3CC[C@@H](O)[C@H](OC)C3)[C@H](C)[C@@H](O)CC1=O)[C@H](C)C[C@@H]2OC [FR-900520, 17-Ethyl-1,14-dihydroxy-12-[2-(4-hydroxy-3-methoxycyclohexyl)-1-methylvinyl]-23-25-dimethoxy-13,19,21,27-tetramethyl-11,28-dioxa-4-azatricyclo [22.3.1.0^4,9]octacos-18-ene-2,3,10,16-tetraone]
- IC50 [1, 6]: ~1 nM

Molecule: Nc1ncnc2c1ncn2[C@@H]1O[C@H](CSCC[C@H](N)C(=O)O)[C@@H](O)[C@H]1O [S-adenosyl-homocysteine (SAH), S-adenosyl-homocysteine]
- Inhibition of DIMT activity [2]: major inhibition

Molecule: Nc1ncnc2c1ncn2[C@@H]1O[C@H](C[C@@H](N)CC[C@H](N)C(=O)O)[C@@H](O)[C@H]1O [sinefungin]
- Inhibition of DIMT activity [2]: major inhibition

Molecule: O=C(O)CN(CCN(CC(=O)O)CC(=O)O)CC(=O)O [EDTA]
- Inhibition of DIMT activity [2]: major inhibition
- Inhibition of DIMT activity ([2]; crude extract): completely inhibited

B1: 31-O-desmethylimmunomycin O-methyltransferase (DIMT) (Streptomyces hygroscopicus subsp. ascomyceticus) (protein)
chain: T1 sequence (Q9KID5 1-260)
- Km [4]: 12.5 µM
- Vmax [4]: 100 nmol/h/mg
- Km [5]: 11 µM
